Laboratory results published in patent US11186592B2, “Thiazolopyridine derivatives as adenosine receptor antagonists” (MERCK PATENT GMBH, priority 2017, dated 2021).
pIC50: −log10 of the molar value.

Tests used:
Assay type in all cases: cell-based
human A2A receptor = molecular target: T1, human A2A receptor (Homo sapiens, UniProt P29274); assay: cAMP (HTRF) functional assay, recombinant HEK293 cells expressing human A2A receptor, agonist NECA
T1 construct: expressed in transfected cells; host or cells: HEK293
Experimental: (§1) The functional activities of human A2A, A2B, A1 and A3 receptors were determined by quantification of cAMP, being the second messenger for adenosine receptors.
(§2) Cells were seeded into 384-well plates, forskolin, test compounds and agonists (CPA for A1- and IB-MECA for A3-receptor) were added. After 30 min incubation, HTRF reagents (cAMP dynamic 2, Cis Bio) were added and the cellular cAMP levels were determined using the ENVISION (Perkin Elmer) plate reader. Obtained raw data were normalized against the inhibitor control and the neural control (DMSO) and the normalized data were fitted using GeneData software.

human A3 receptor = molecular target: T2, human A3 receptor (Homo sapiens, UniProt P0DMS8); assay: cAMP (HTRF) functional assay, recombinant CHO cells expressing human A3 receptor, forskolin + agonist IB-MECA
T2 construct: expressed in transfected cells; host or cells: CHO
T2 sequence (P0DMS8 1-318): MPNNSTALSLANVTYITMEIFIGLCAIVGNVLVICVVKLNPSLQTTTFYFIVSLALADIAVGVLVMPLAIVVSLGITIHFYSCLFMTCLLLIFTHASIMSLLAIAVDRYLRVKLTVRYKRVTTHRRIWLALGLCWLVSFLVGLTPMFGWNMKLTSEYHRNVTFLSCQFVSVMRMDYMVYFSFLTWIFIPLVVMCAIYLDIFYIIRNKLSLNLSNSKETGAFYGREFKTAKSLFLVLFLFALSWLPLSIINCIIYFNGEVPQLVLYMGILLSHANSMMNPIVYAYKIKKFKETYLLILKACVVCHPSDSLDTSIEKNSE
Experimental: as §1
(§3) For human A1 and A3 receptors, recombinant CHO cells, expressing either A1 or A3-receptor, were used. As both receptors couple to Gi proteins, the assay protocol was adapted:
as §2

human A2B receptor = molecular target: T3, human A2B receptor (Homo sapiens, UniProt P29275); assay: cAMP (HTRF) functional assay, recombinant HEK293 cells expressing human A2B receptor, agonist NECA
T3 construct: expressed in transfected cells; host or cells: HEK293
T3 sequence (P29275 1-332): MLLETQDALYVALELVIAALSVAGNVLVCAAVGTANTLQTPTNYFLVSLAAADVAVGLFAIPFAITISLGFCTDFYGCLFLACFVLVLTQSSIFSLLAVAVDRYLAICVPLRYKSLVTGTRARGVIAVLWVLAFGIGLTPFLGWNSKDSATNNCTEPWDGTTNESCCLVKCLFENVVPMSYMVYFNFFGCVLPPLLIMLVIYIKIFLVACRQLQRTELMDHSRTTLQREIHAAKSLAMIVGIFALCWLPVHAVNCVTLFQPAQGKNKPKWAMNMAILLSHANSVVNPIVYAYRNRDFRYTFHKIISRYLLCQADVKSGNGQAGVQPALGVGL
Experimental: as §1, §2

human A1 receptor = molecular target: T4, human A1 receptor (Homo sapiens, UniProt P30542); assay: cAMP (HTRF) functional assay, recombinant CHO cells expressing human A1 receptor, forskolin + agonist CPA
T4 construct: expressed in transfected cells; host or cells: CHO
T4 sequence (P30542 1-326): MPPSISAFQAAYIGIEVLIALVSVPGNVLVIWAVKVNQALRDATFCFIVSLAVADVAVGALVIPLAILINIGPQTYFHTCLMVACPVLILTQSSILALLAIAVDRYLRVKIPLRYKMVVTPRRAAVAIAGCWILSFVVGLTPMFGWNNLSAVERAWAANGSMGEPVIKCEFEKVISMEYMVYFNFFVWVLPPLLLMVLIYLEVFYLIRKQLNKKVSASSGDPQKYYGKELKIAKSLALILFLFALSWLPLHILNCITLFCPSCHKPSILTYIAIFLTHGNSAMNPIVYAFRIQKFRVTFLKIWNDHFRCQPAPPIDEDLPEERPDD
Experimental: as §1, §3, §2

T1 sequence (P29274 whole entry): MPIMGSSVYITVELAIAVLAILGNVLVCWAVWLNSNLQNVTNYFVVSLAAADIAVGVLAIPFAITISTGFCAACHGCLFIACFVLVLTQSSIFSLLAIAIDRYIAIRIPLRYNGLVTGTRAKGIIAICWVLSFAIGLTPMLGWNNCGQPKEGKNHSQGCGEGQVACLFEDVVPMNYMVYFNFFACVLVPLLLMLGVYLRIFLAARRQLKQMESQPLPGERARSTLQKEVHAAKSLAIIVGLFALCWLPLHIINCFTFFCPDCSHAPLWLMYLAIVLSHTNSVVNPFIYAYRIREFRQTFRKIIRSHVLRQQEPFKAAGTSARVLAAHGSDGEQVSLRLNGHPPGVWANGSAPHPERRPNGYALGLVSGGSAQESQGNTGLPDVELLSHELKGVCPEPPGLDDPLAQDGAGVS

For COc1nc(C)c(-c2ccccc2)c2sc(NC(=O)N3CCC4(CCOCC4)C3)nc12 [compound 223, 8-Oxa-2-aza-spiro[4.5]decane-2-carboxylic acid (4-methoxy-6-methyl-7-phenyl-thiazolo[4,5-c]pyridin-2-yl)-amide], the pIC50 (human A2A receptor) was over 8.00, the pIC50 (human A3 receptor) was under 6.00 and the pIC50 (human A2B receptor) was over 7.00.
With COc1ncc(-c2cccc(F)c2F)c2sc(NC(=O)N3CCC4(CCOCC4)C3)nc12 [compound 209, 8-Oxa-2-aza-spiro[4.5]decane-2-carboxylic acid [7-(2,3-difluoro-phenyl)-4-methoxy-thiazolo[4,5-c]pyridin-2-yl]-amide] the pIC50 (human A2A receptor) was over 8.00, the pIC50 (human A3 receptor) was under 6.00 and the pIC50 (human A1 receptor) was under 6.00. The pIC50 (human A2B receptor) was over 7.00.
With COc1ncc(-c2cnn(C)c2)c2sc(NC(=O)c3cnc(C)s3)nc12 [compound 131, 2-Methyl-thiazole-5-carboxylic acid [4-methoxy-7-(1-methyl-1H-pyrazol-4-yl)-thiazolo[4,5-c]pyridin-2-yl]-amide] the pIC50 (human A2A receptor) was over 8.00, the pIC50 (human A3 receptor) was under 6.00 and the pIC50 (human A2B receptor) was over 7.00.
COc1ncc(-c2cc(F)ccc2F)c2sc(NC(=O)N3CCC4(CCOCC4)C3)nc12 [compound 210, 8-Oxa-2-aza-spiro[4.5]decane-2-carboxylic acid [7-(2,5-difluoro-phenyl)-4-methoxy-thiazolo[4,5-c]pyridin-2-yl]-amide] showed a pIC50 (human A2A receptor) of over 8.00, a pIC50 (human A3 receptor) of under 6.00 and a pIC50 (human A1 receptor) of under 6.00. For the same molecule, the pIC50 (human A2B receptor) was over 7.00.
Molecule COCCn1cc(C(=O)Nc2nc3c(OC)ncc(C4CCOCC4)c3s2)cn1 [compound 29, 1-(2-Methoxy-ethyl)-1H-pyrazole-4-carboxylic acid [4-methoxy-7-(tetrahydro-pyran-4-yl)-thiazolo[4,5-c]pyridin-2-yl]-2-amide] has a pIC50 (human A2A receptor) of over 8.00, a pIC50 (human A3 receptor) of over 6.00 and a pIC50 (human A1 receptor) of over 6.00. The pIC50 (human A2B receptor) was over 7.00.
In the case of COCCOc1cccc(-c2cnc(OC)c3nc(NC(=O)c4ccc(C(=O)N(C)C)cc4)sc23)c1 [compound 224, N-{4-Methoxy-7-[3-(2-methoxy-ethoxy)-phenyl]-thiazolo[4,5-c]pyridin-2-yl}-N′,N′-dimethyl-terephthalamide], the pIC50 (human A2A receptor) was over 8.00, the pIC50 (human A3 receptor) was over 6.00 and the pIC50 (human A2B receptor) was over 7.00.
With COc1ncc(-c2cnn(C)c2)c2sc(NC(=O)c3cnc(C)o3)nc12 [compound 130, 2-Methyl-oxazole-5-carboxylic acid [4-methoxy-7-(1-methyl-1H-pyrazol-4-yl)-thiazolo[4,5-c]pyridin-2-yl]-amide] the pIC50 (human A2A receptor) was over 8.00, the pIC50 (human A3 receptor) was under 6.00 and the pIC50 (human A1 receptor) was over 6.00. It also gave a pIC50 (human A2B receptor) of over 7.00.
With COc1ncc(-c2ccccc2)c2sc(NC(=O)c3ccc(C(=O)N(C)CCO)cc3)nc12 [compound 227, N-(2-Hydroxy-ethyl)-N′-(4-methoxy-7-phenyl-thiazolo[4,5-c]pyridin-2-yl)-N-methyl-terephthalamide] the pIC50 (human A2A receptor) was over 8.00, the pIC50 (human A3 receptor) was under 6.00 and the pIC50 (human A2B receptor) was over 8.00.
COc1ncc(-c2ccccc2)c2sc(NC(=O)c3cnc(C)o3)nc12 [compound 186, 2-Methyl-oxazole-5-carboxylic acid (4-methoxy-7-phenyl-thiazolo[4,5-c]pyridin-2-yl)-amide] showed a pIC50 (human A2A receptor) of over 8.00, a pIC50 (human A3 receptor) of over 6.00 and a pIC50 (human A1 receptor) of over 6.00. For the same molecule, the pIC50 (human A2B receptor) was over 7.00.
For COCc1ccc(C(=O)Nc2nc3c(OC)ncc(N4CCOCC4)c3s2)cc1 [compound 3, 4-Methoxymethyl-N-(4-methoxy-7-morpholin-4-yl-thiazolo[4,5-c]pyridin-2-yl)-benzamide], the pIC50 (human A2A receptor) was over 8.00, the pIC50 (human A3 receptor) was over 6.00 and the pIC50 (human A1 receptor) was under 6.00. It also gave a pIC50 (human A2B receptor) of over 6.00.
Molecule COc1ncc(N2CCOCC2)c2sc(NC(=O)N3CC[C@@]4(CCOC4)C3)nc12 [compound 18, (5R)-N-[4-methoxy-7-(morpholin-4-yl)-[1,3]thiazolo[4,5-c]pyridin-2-yl]-2-oxa-7-azaspiro[4.4]nonane-7-carboxamide] has a pIC50 (human A2A receptor) of over 8.00, a pIC50 (human A3 receptor) of under 6.00 and a pIC50 (human A1 receptor) of under 6.00. It also gave a pIC50 (human A2B receptor) of over 6.00.
COc1ncc(-c2ccccc2)c2sc(NC(=O)c3ccc(C(=O)NCCN(C)C)cc3)nc12 [compound 230, N-(2-Dimethylamino-ethyl)-N′-(4-methoxy-7-phenyl-thiazolo[4,5-c]pyridin-2-yl)-terephthalamide] showed a pIC50 (human A2A receptor) of over 8.00, a pIC50 (human A3 receptor) of over 6.00 and a pIC50 (human A2B receptor) of over 7.00.
COc1ncc(C2CCOCC2)c2sc(NC(=O)c3cnc(N)s3)nc12 [compound 241, 2-amino-N-[4-methoxy-7-(oxan-4-yl)-[1,3]thiazolo[4,5-c]pyridin-2-yl]-1,3-thiazole-5-carboxamide] showed a pIC50 (human A2A receptor) of over 8.00, a pIC50 (human A3 receptor) of over 6.00 and a pIC50 (human A1 receptor) of over 6.00. For the same molecule, the pIC50 (human A2B receptor) was over 8.00.
COc1ncc(-c2ccccc2)c2sc(NC(=O)C3(N)CC3)nc12 [compound 203, 1-Amino-cyclopropanecarboxylic acid (4-methoxy-7-phenyl-thiazolo[4,5-c]pyridin-2-yl)-amide] gave a pIC50 (human A2A receptor) of over 8.00, a pIC50 (human A3 receptor) of over 6.00 and a pIC50 (human A1 receptor) of over 6.00. The pIC50 (human A2B receptor) was over 7.00.
For COc1nc(F)c(N2CCOCC2)c2sc(NC(=O)c3cnn(C)c3)nc12 [compound 165, 1-Methyl-1H-pyrazole-4-carboxylic acid (6-fluoro-4-methoxy-7-morpholin-4-yl-thiazolo[4,5-c]pyridin-2-yl)-amide], the pIC50 (human A2A receptor) was over 8.00, the pIC50 (human A3 receptor) was over 6.00 and the pIC50 (human A2B receptor) was over 8.00.
For COc1nc(C#N)c(N2CCOCC2)c2sc(NC(=O)c3cnn(C)c3)nc12 [compound 217, 1-Methyl-1H-pyrazole-4-carboxylic acid (6-cyano-4-methoxy-7-morpholin-4-yl-thiazolo[4,5-c]pyridin-2-yl)-amide], the pIC50 (human A2A receptor) was over 8.00, the pIC50 (human A3 receptor) was over 6.00 and the pIC50 (human A2B receptor) was over 7.00.
COc1nc(F)c(N2CCOCC2)c2sc(NC(=O)c3ccc(N4C(=O)CCC4=O)cc3)nc12 [compound 226, 4-(2,5-Dioxo-pyrrolidin-1-yl)-N-(6-fluoro-4-methoxy-7-morpholin-4-yl-thiazolo[4,5-c]pyridin-2-yl)-benzamide] was tested, and the pIC50 (human A2A receptor) was over 8.00, the pIC50 (human A3 receptor) was under 6.00 and the pIC50 (human A2B receptor) was over 8.00.
With COc1ncc(-c2ccccc2)c2sc(NC(=O)c3cnn(C)c3)nc12 [compound 188, 1-Methyl-1H-pyrazole-4-carboxylic acid (4-methoxy-7-phenyl-thiazolo[4,5-c]pyridin-2-yl)-amide] the pIC50 (human A2A receptor) was over 8.00, the pIC50 (human A3 receptor) was over 6.00 and the pIC50 (human A2B receptor) was over 8.00.
With COc1nc(Cl)c(N2CCOCC2)c2sc(NC(=O)c3cnn(C)c3)nc12 [compound 221, 1-Methyl-1H-pyrazole-4-carboxylic acid (6-chloro-4-methoxy-7-morpholin-4-yl-thiazolo[4,5-c]pyridin-2-yl)-amide] the pIC50 (human A2A receptor) was over 8.00, the pIC50 (human A3 receptor) was over 6.00 and the pIC50 (human A2B receptor) was over 7.00.
Molecule COCCOc1cccc(-c2cnc(OC)c3nc(NC(=O)N4CCC5(CCOCC5)C4)sc23)c1 [compound 225, 8-Oxa-2-aza-spiro[4.5]decane-2-carboxylic acid (4-methoxy-7-[3-(2-methoxy-ethoxy)-phenyl]-thiazolo[4,5-c]pyridin-2-yl}-amide] has a pIC50 (human A2A receptor) of over 8.00, a pIC50 (human A3 receptor) of under 6.00 and a pIC50 (human A2B receptor) of over 7.00.
For COc1nc(Br)c(N2CCOCC2)c2sc(NC(=O)c3cnn(C)c3)nc12 [compound 178, 1-Methyl-1H-pyrazole-4-carboxylic acid (6-bromo-4-methoxy-7-morpholin-4-yl-thiazolo[4,5-c]pyridin-2-yl)-amide], the pIC50 (human A2A receptor) was over 8.00, the pIC50 (human A3 receptor) was over 6.00 and the pIC50 (human A2B receptor) was over 7.00.
With COc1ncc(-c2ccccc2)c2sc(NC(=O)c3ccc(C(=O)NCCO)cc3)nc12 [compound 228, N-(2-Hydroxy-ethyl)-N′-(4-methoxy-7-phenyl-thiazolo[4,5-c]pyridin-2-yl)-terephthalamide] the pIC50 (human A2A receptor) was over 8.00, the pIC50 (human A3 receptor) was over 6.00 and the pIC50 (human A2B receptor) was over 7.00.
Molecule COc1ncc(-c2cccnc2)c2sc(NC(=O)c3ccc(C(=O)N(C)C)cc3)nc12 [compound 218, N-(4-Methoxy-7-pyridin-3-yl-thiazolo[4,5-c]pyridin-2-yl)-N′,N′-dimethyl-terephthalamide] has a pIC50 (human A2A receptor) of over 8.00, a pIC50 (human A3 receptor) of under 6.00 and a pIC50 (human A2B receptor) of over 7.00.
